From PubChem BioAssay (NCI)
“And” between values parts separate entries of the source, which are not always exact repeats. Equal entries are not always repeated.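 How tested: cells in 96-well plates exposed to compound for 48 hours at five concentrations. Here, GI50 denotes the concentration required for 50% inhibition of growth. At the TGI there is no net growth.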

Key:
Assay in all cases: NCI anticancer screen, dose series, 48 h
[1] = system: 786-0 renal
[2] = system: A498 renal
[3] = system: A549 NSCLC
[4] = system: ACHN renal
[5] = system: BT-549 breast
[6] = system: CAKI-1 renal
[7] = system: COLO 205 colon
[8] = system: DU-145 prostate
[9] = system: EKVX NSCLC
[10] = system: HCC-2998 colon
[11] = system: HCT-116 colon
[12] = system: HCT-15 colon
[13] = system: HOP-62 NSCLC
[14] = system: HOP-92 NSCLC
[15] = system: HS 578T breast
[16] = system: HT29 colon
[17] = system: IGROV1 ovarian
[18] = system: K-562 leukemia
[19] = system: KM12 colon
[20] = system: LOX IMVI melanoma
[21] = system: M14 melanoma
[22] = system: MALME-3M melanoma
[23] = system: MCF7 breast
[24] = system: MDA-MB-231 breast
[25] = system: MDA-MB-435
[26] = system: MDA-N
[27] = system: NCI-H226 lung
[28] = system: NCI-H23 lung
[29] = system: NCI-H460 lung
[30] = system: NCI-H522 lung
[31] = system: NCI/ADR-RES ovarian
[32] = system: OVCAR-3 ovarian
[33] = system: OVCAR-4 ovarian
[34] = system: OVCAR-5 ovarian
[35] = system: OVCAR-8 ovarian
[36] = system: PC-3 prostate
[37] = system: RPMI-8226 leukemia
[38] = system: RXF 393 renal
[39] = system: SF-268 CNS
[40] = system: SF-295 CNS
[41] = system: SF-539 CNS
[42] = system: SK-MEL-2 melanoma
[43] = system: SK-MEL-28 melanoma
[44] = system: SK-MEL-5 melanoma
[45] = system: SK-OV-3 ovarian
[46] = system: SN12C renal
[47] = system: SNB-19 CNS
[48] = system: SNB-75 CNS
[49] = system: SR leukemia
[50] = system: SW-620 colon
[51] = system: T-47D breast
[52] = system: TK-10 renal
[53] = system: U251 CNS
[54] = system: UACC-257 melanoma
[55] = system: UACC-62 melanoma
[56] = system: UO-31 renal
[57] = system: CCRF-CEM leukemia
[58] = system: HL-60(TB) leukemia
[59] = system: MOLT-4 leukemia

In the case of COc1ccc(C(Nc2ccccn2)c2cc(C(C)(C)C)cc(C(C)(C)C)c2O)cc1 (configuration not stated), the TGI [1] is reported as greater than 100 µM, the TGI [2] is reported as greater than 100 µM and the TGI [3] is reported as greater than 100 µM. The TGI [4] was greater than 100 µM, the TGI [5] was 56.8 µM and the TGI [6] was greater than 100 µM. The TGI [7] was 50 µM, the TGI [8] was greater than 100 µM and the TGI [9] was greater than 100 µM. The TGI [10] was 38.7 µM, the TGI [11] was greater than 100 µM and the TGI [12] was greater than 100 µM. It also gave a TGI [13] of 78.2 µM, a TGI [14] greater than 100 µM and a TGI [15] greater than 100 µM. For the same molecule, the TGI [16] was greater than 100 µM, the TGI [17] was greater than 100 µM and the TGI [18] was greater than 100 µM. It also gave a TGI [19] of 63.8 µM, a TGI [20] of 35.8 µM and a TGI [21] of 54.9 µM. It also gave a TGI [22] of 24.4 µM, a TGI [23] greater than 100 µM and a TGI [24] greater than 100 µM. For the same molecule, the TGI [25] was 62.4 µM, the TGI [26] was greater than 100 µM and the TGI [27] was 47.9 µM. It also gave a TGI [28] of 51.2 µM, a TGI [29] of 55.7 µM and a TGI [30] of 17.7 µM. For the same molecule, the TGI [31] was greater than 100 µM, the TGI [32] was 43.6 µM and the TGI [33] was greater than 100 µM. For the same molecule, the TGI [34] was greater than 100 µM, the TGI [35] was greater than 100 µM and the TGI [36] was greater than 100 µM. It also gave a TGI [37] greater than 100 µM, a TGI [38] of 38.6 µM and a TGI [39] greater than 100 µM. It also gave a TGI [40] of 59.3 µM, a TGI [41] greater than 100 µM and a TGI [42] of 43.2 µM. The TGI [43] was greater than 100 µM, the TGI [44] was 31.3 µM and the TGI [45] was greater than 100 µM. For the same molecule, the TGI [46] was greater than 100 µM, the TGI [47] was greater than 100 µM and the TGI [48] was 49.4 µM. For the same molecule, the TGI [49] was greater than 100 µM, the TGI [50] was greater than 100 µM and the TGI [51] was 76.4 µM. For the same molecule, the TGI [52] was greater than 100 µM, the TGI [53] was greater than 100 µM and the TGI [54] was greater than 100 µM. The TGI [55] was 67.1 µM and the TGI [56] was greater than 100 µM.
Cc1cnc2[nH]c(-c3ccc(Cl)cc3)cc(=O)c2c1 showed a TGI [1] greater than 100 µM, a TGI [2] greater than 100 µM and a TGI [3] greater than 100 µM. For the same molecule, the TGI [4] was greater than 100 µM, the TGI [5] was greater than 100 µM and the TGI [6] was greater than 55.6 µM. It also gave a TGI [57] greater than 100 µM, a TGI [7] greater than 100 µM and a TGI [8] greater than 69.8 µM. It also gave a TGI [9] greater than 100 µM, a TGI [10] of 70.1 µM and a TGI [11] greater than 29.3 µM. For the same molecule, the TGI [12] was greater than 40.8 µM, the TGI [58] was greater than 23.3 µM and the TGI [13] was greater than 100 µM. For the same molecule, the TGI [14] was greater than 100 µM, the TGI [15] was greater than 100 µM and the TGI [16] was greater than 39.1 µM. It also gave a TGI [17] greater than 100 µM, a TGI [18] of 19.8 µM and a TGI [19] greater than 100 µM. The TGI [20] was greater than 100 µM, the TGI [21] was greater than 100 µM and the TGI [22] was greater than 100 µM. For the same molecule, the TGI [23] was greater than 72.5 µM, the TGI [24] was greater than 19.9 µM and the TGI [25] was 1.97 µM. It also gave a TGI [26] of 3.61 µM, a TGI [59] greater than 53.7 µM and a TGI [27] greater than 100 µM. It also gave a TGI [28] greater than 100 µM, a TGI [29] greater than 100 µM and a TGI [30] greater than 100 µM. For the same molecule, the TGI [31] was greater than 26.3 µM, the TGI [32] was greater than 24.4 µM and the TGI [33] was greater than 100 µM. For the same molecule, the TGI [34] was greater than 31.6 µM, the TGI [35] was greater than 100 µM and the TGI [37] was greater than 60.3 µM. For the same molecule, the TGI [39] was greater than 100 µM, the TGI [40] was 23 µM and the TGI [41] was 6.81 µM. For the same molecule, the TGI [42] was greater than 100 µM, the TGI [43] was greater than 100 µM and the TGI [44] was greater than 100 µM. It also gave a TGI [45] greater than 100 µM, a TGI [46] greater than 100 µM and a TGI [47] greater than 100 µM. It also gave a TGI [48] greater than 100 µM, a TGI [49] greater than 100 µM and a TGI [50] greater than 100 µM. The TGI [51] was greater than 100 µM, the TGI [52] was greater than 100 µM and the TGI [53] was greater than 32.4 µM. It also gave a TGI [54] greater than 100 µM, a TGI [55] greater than 100 µM and a TGI [56] greater than 60.5 µM.
In the case of COc1cc(/C=C/c2ccnc3ccccc23)cc(OC)c1OC, the GI50 [1] is reported as 4.42 µM, the TGI [1] is reported as 28.2 µM and 61.6 µM and the GI50 [2] is reported as 1.6 µM. The TGI [2] was 8.91 µM and 5.87 µM, the GI50 [3] was 3.39 µM and the TGI [3] was 31.1 µM and > 100 µM. For the same molecule, the GI50 [4] was 4.89 µM, the TGI [4] was 92 µM and > 100 µM and the GI50 [6] was 1.89 µM. For the same molecule, the TGI [6] was 20.8 µM and 26.8 µM, the GI50 [57] was 3.64 µM and the GI50 [7] was 3.26 µM. The TGI [7] was 7.36 µM and 15.1 µM, the GI50 [8] was 3.06 µM and the TGI [8] was 30.3 µM and 20.7 µM. For the same molecule, the GI50 [9] was 6.27 µM, the TGI [9] was greater than 100 µM and the GI50 [10] was 3.53 µM. For the same molecule, the TGI [10] was > 100 µM and 38.4 µM, the GI50 [11] was 2.88 µM and the TGI [11] was 12.1 µM and 18.5 µM. For the same molecule, the GI50 [12] was 1.92 µM, the TGI [12] was > 100 µM and 70.1 µM and the GI50 [58] was 2.56 µM. For the same molecule, the TGI [58] was 1.58 µM and 7.97 µM, the GI50 [13] was 5.87 µM and the TGI [13] was 37.7 µM and > 100 µM. For the same molecule, the GI50 [14] was 2.07 µM, the TGI [14] was 9.08 µM and the GI50 [15] was 1.74 µM. For the same molecule, the TGI [15] was 20.9 µM and 7.18 µM, the GI50 [16] was 1.72 µM and the GI50 [17] was 4.94 µM. The TGI [17] was 35 µM and > 100 µM, the GI50 [18] was 0.746 µM and the TGI [18] was greater than 100 µM. The GI50 [19] was 1.34 µM, the TGI [19] was 15.9 µM and 11.1 µM and the GI50 [20] was 5.25 µM. For the same molecule, the TGI [20] was 29.3 µM and > 100 µM, the GI50 [21] was 2.43 µM and the TGI [21] was 91 µM and 13.8 µM. The GI50 [22] was 3.88 µM, the TGI [22] was 42.5 µM and > 100 µM and the GI50 [23] was 2.35 µM. For the same molecule, the TGI [23] was 25.2 µM and > 100 µM, the GI50 [24] was 2.8 µM and the TGI [24] was 9.42 µM and 46 µM. The GI50 [25] was 0.355 µM, the TGI [25] was 1.87 µM and 1.85 µM and the TGI [26] was 1.74 µM. For the same molecule, the GI50 [59] was 2.47 µM, the TGI [59] was 13.4 µM and 26.2 µM and the TGI [27] was 50.9 µM. For the same molecule, the TGI [28] was 6.92 µM and 9.64 µM, the GI50 [29] was 2.94 µM and the TGI [29] was 15.8 µM and 15 µM. For the same molecule, the TGI [30] was 46.8 µM and 7.39 µM, the GI50 [31] was 1.25 µM and the TGI [31] was 9.32 µM and 4.98 µM. For the same molecule, the GI50 [32] was 1.67 µM, the TGI [32] was 14.6 µM and 4.71 µM and the GI50 [33] was 4.41 µM. The TGI [33] was 45.5 µM and > 100 µM, the TGI [34] was 95 µM and > 100 µM and the GI50 [35] was 4.17 µM. For the same molecule, the TGI [35] was greater than 100 µM, the GI50 [36] was 3.81 µM and the TGI [36] was 94.1 µM and > 100 µM. For the same molecule, the GI50 [37] was 6.55 µM, the GI50 [38] was 1.97 µM and the TGI [38] was 15.3 µM and 8.02 µM. The TGI [39] was 19.8 µM and 47.6 µM, the GI50 [40] was 3.12 µM and the TGI [40] was > 100 µM and 53 µM. For the same molecule, the TGI [41] was 11.5 µM and 23.3 µM, the TGI [42] was greater than 100 µM and the GI50 [43] was 4.06 µM. For the same molecule, the TGI [43] was 37.2 µM and > 100 µM, the TGI [44] was 10.5 µM and 11.5 µM and the GI50 [45] was 5.68 µM. For the same molecule, the TGI [45] was 46.4 µM and 40.3 µM, the GI50 [46] was 4.4 µM and the TGI [46] was 31 µM and > 100 µM. For the same molecule, the GI50 [47] was 6.71 µM, the TGI [47] was 42.1 µM and > 100 µM and the GI50 [48] was 1.7 µM. For the same molecule, the TGI [48] was 5.4 µM, the GI50 [49] was 0.755 µM and the GI50 [50] was 0.906 µM. For the same molecule, the TGI [50] was > 100 µM and 20 µM, the GI50 [51] was 6.58 µM and the TGI [51] was 80.4 µM and > 100 µM. The TGI [52] was 30.6 µM and > 100 µM, the GI50 [53] was 3.01 µM and the TGI [53] was 44.1 µM and 22.8 µM. For the same molecule, the TGI [54] was 91.6 µM and > 100 µM, the TGI [55] was 30.7 µM and > 100 µM and the TGI [56] was greater than 100 µM.
